Like-named read-outs stand apart in the source and are kept apart here.
Tests used:
Sphaerotheca fuliginea = experiment: Sphaerotheca test (cucumber)/protective; type: in vivo; details: Podosphaera fuliginea, 168 h, 100 ppm active substance, protective, evaluation 7 days after inoculation, read-out: degree of effectiveness
Procedure: Sphaerotheca Test (Cucumber)/Protective [table] To prepare a suitable active substance composition, 1 part by weight of active substance is mixed with the given amounts of solvents and emulsifier and the concentrate is diluted to the desired concentration using water. For the testing of protective effectiveness, young plants are sprayed with the active substance composition in the application rate given. After the spray coating has been dried on, the plants are inoculated with an aqueous suspension of spores of Sphaerotheca fuliginea. The plants are then placed in a greenhouse at approximately 23° C. and a relative humidity of approximately 70%. Evaluation is carried out 7 days after the inoculation. In this connection, 0% means a degree of effectiveness corresponding to that of the control, while a degree of effectiveness of 100% means that no infestation is observed.

Pyrenophora teres = Pyrenophora teres test (barley)/protective; type: in vivo; details: 500 ppm active substance, protective, evaluation 7-9 days after inoculation, read-out: degree of effectiveness
Procedure: Pyrenophora teres Test (Barley)/Protective
(§1) To prepare a suitable active substance composition, 1 part by weight of active substance is mixed with the given amounts of solvent and emulsifier and the concentrate is diluted to the desired concentration using water.
For the testing of protective effectiveness, young barley plants are sprayed with the active substance composition in the application rate given. 1 day after the treatment, the plants are inoculated with an aqueous suspension of the spores of Pyrenophora teres and then remain at 100% relative humidity and 20° C. for 48 h. Subsequently, the plants are placed in a greenhouse at 80% relative humidity and a temperature of 20° C.
Evaluation is carried out 7-9 days after the inoculation. In this connection, 0% means a degree of effectiveness corresponding to that of the control, while a degree of effectiveness of 100% means that no infestation is observed.

[1] = system: Blumeria graminis f.sp. hordei; experiment: Blumeria graminis test (barley)/protective; type: in vivo; details: 168 h, 1000 ppm active substance, protective, evaluation 7 days after inoculation, read-out: degree of effectiveness
Procedure: Blumeria graminis Test (Barley)/Protective
as §1
For the testing of protective effectiveness, young plants are sprayed with the active substance composition in the application rate given.
After the spray coating has been dried on, the plants are dusted with spores of Blumeria graminis f.sp. hordei.
The plants are placed in a greenhouse at a temperature of approximately 20° C. and a relative humidity of approximately 80%, in order to encourage the development of mildew pustules.
Evaluation is carried out 7 days after the inoculation. In this connection, 0% means a degree of effectiveness corresponding to that of the control, while a degree of effectiveness of 100% means that no infestation is observed.

[2] = system: Puccinia recondita var. tritici; experiment: Puccinia test (wheat)/protective; type: in vivo; details: 240 h, 1000 ppm active substance, protective, evaluation 10 days after inoculation, read-out: degree of effectiveness
Procedure: Puccinia Test (Wheat)/Protective
as §1
For the testing of protective effectiveness, young plants are sprayed with the active substance composition in the application rate given. After the spray coating has been dried on, the plants are sprayed with a suspension of the conidia of Puccinia recondita var. tritici. The plants remain in an incubation chamber at 20° C. and 100% relative humidity for 48 hours.
The plants are then placed in a greenhouse at a temperature of approximately 20° C. and a relative humidity of 80%, in order to encourage the development of rust pustules.
Evaluation is carried out 10 days after the inoculation. In this connection, 0% means a degree of effectiveness corresponding to that of the control, while a degree of effectiveness of 100% means that no infestation is observed.

Alternaria solani = experiment: Alternaria test (tomato)/protective; type: in vivo; details: 168 h, 500 ppm active substance, protective, evaluation 7 days after inoculation, read-out: degree of effectiveness
Procedure: Alternaria Test (Tomato)/Protective [table] To prepare a suitable active substance composition, 1 part by weight of active substance is mixed with the given amounts of solvent and emulsifier and the concentrate is diluted to the desired concentration using water. For the testing of protective effectiveness, young tomato plants are sprayed with the active substance composition in the application rate given. 1 day after the treatment, the plants are inoculated with a suspension of the spores of Alternaria solani and then stand at 100% relative humidity and 20° C. for 24 h. Subsequently, the plants stand at 96% relative humidity and a temperature of 20° C. Evaluation is carried out 7 days after the inoculation. In this connection, 0% means a degree of effectiveness corresponding to that of the control, while a degree of effectiveness of 100% means that no infestation is observed.

Uromyces appendiculatus = experiment: Uromyces test (beans)/protective; type: in vivo; details: 240 h, 100 ppm active substance, protective, evaluation 10 days after inoculation, read-out: degree of effectiveness
Procedure: Uromyces Test (Beans)/Protective [table] To prepare a suitable active substance composition, 1 part by weight of active substance is mixed with the given amounts of solvents and emulsifier and the concentrate is diluted to the desired concentration using water. For the testing of protective effectiveness, young plants are sprayed with the active substance composition in the application rate given. After the spray coating has been dried on, the plants are inoculated with an aqueous suspension of the spores of the bean rust pathogen Uromyces appendiculatus and then remain in an incubation chamber at approximately 20° C. and 100% relative humidity for 1 day. The plants are then placed in a greenhouse at approximately 21° C. and a relative humidity of approximately 90%. Evaluation is carried out 10 days after the inoculation. In this connection, 0% means a degree of effectiveness corresponding to that of the control, while a degree of effectiveness of 100% means that no infestation is observed.

Compound | logP (physchem; pH 2.3) | logP (physchem) | pest or weed control at 100 ppm (Sphaerotheca fuliginea) [%] | pest or weed control at 500 ppm (Pyrenophora teres) [%] | pest or weed control at 1000 ppm [1] [%] | pest or weed control at 1000 ppm [2] [%] | pest or weed control at 500 ppm (Alternaria solani) [%] | pest or weed control at 100 ppm (Uromyces appendiculatus) [%]
Cc1cc(Oc2nc(C3(Cl)CC3)ns2)c(C)cc1/N=C/N1CCCCC1 [Compound 13, 4-{[3-(1-Chlorocyclopropyl)-1,2,4-thiadiazol-5-yl]oxy}-2,5-dimethyl-N-[(1E)-piperidin-1-yl-methylidene]aniline] | 1.76 |  | ≥ 70 | ≥ 70 | ≥ 70 | ≥ 70 |  | 
Cc1cc(Oc2nc(C3(C)CC3)ns2)c(C)cc1N [2,5-Dimethyl-4-{[3-(1-methylcyclopropyl)-1,2,4-thiadiazol-5-yl]oxy}aniline] | 3.08 |  |  |  |  |  |  | 
CCN(C)C=Nc1cc(C)c(Oc2nc(C3(C)CC3)cs2)cc1C [Compound 22, N′-(2,5-Dimethyl-4-{[4-(1-methylcyclopropyl)-1,3-thiazol-2-yl]oxy}phenyl)-N-ethyl-N-methylimidoformamide] | 1.86 | 4.96 |  |  | ≥ 70 | ≥ 70 | ≥ 70 | 
Cc1cc(Oc2nc(C3(C)CC3)c(Cl)s2)c(C)cc1/N=C/N1CCCCC1 [Compound 24, 4-{[5-Chloro-4-(1-methylcyclopropyl)-1,3-thiazol-2-yl]oxy}-2,5-dimethyl-N-[(1E)-piperidin-1-ylmethylidene]aniline] | 2.34 |  | ≥ 70 | ≥ 70 | ≥ 70 | ≥ 70 | ≥ 70 | ≥ 70
Cc1cc(Oc2nc(C3CC3C)ns2)c(C)cc1N=CN(C)C (stereo not drawn) [Compound 20, N′-(2,5-Dimethyl-4-{[3-(2-methylcyclopropyl)-1,2,4-thiadiazol-5-yl]oxy}phenyl)-N,N-di-methylimidoformamide] | 1.62 |  | ≥ 70 | ≥ 70 | ≥ 70 | ≥ 70 | ≥ 70 | ≥ 70
Cc1cc(Oc2nc(C3CC3C)ns2)c(C)cc1/N=C/N1CCCCC1 (stereo not drawn) [Compound 16, 2,5-Dimethyl-4-{[3-(2-methylcyclopropyl)-1,2,4-thiadiazol-5-yl]oxy}-N-[(1E)-piperidin-1-ylmethylidene]aniline] | 1.78 |  | ≥ 70 | ≥ 70 | ≥ 70 | ≥ 70 | ≥ 70 | ≥ 70
Cc1cc(Oc2nc(C3(Cl)CC3)ns2)c(C)cc1N=CN(C)C [Compound 19, N′-(4-{[3-(1-Chlorocyclopropyl)-1,2,4-thiadiazol-5-yl]oxy}-2,5-dimethylphenyl)-N,N-dimethylimidoformamide] | 1.52 |  | ≥ 70 | ≥ 70 | ≥ 70 | ≥ 70 | ≥ 70 | ≥ 70
Cc1cc(Oc2nc(C3(Cl)CC3)ns2)c(C)cc1N=CN(C)C(C)C [Compound 18, N′-(4-{[3-(1-Chlorocyclopropyl)-1,2,4-thiadiazol-5-yl]oxy}-2,5-dimethylphenyl)-N-methyl-N-(1-methylethyl)imidoformamide] | 2.01 |  | ≥ 70 | ≥ 70 | ≥ 70 | ≥ 70 | ≥ 70 | ≥ 70

Continued, in another order:

logP (physchem; pH 2.3) | logP (physchem) | Compound | pest or weed control at 100 ppm (Sphaerotheca fuliginea) [%] | pest or weed control at 500 ppm (Pyrenophora teres) [%] | pest or weed control at 1000 ppm [1] [%] | pest or weed control at 1000 ppm [2] [%] | pest or weed control at 500 ppm (Alternaria solani) [%] | pest or weed control at 100 ppm (Uromyces appendiculatus) [%]
1.98 |  | Cc1cc(Oc2nc(C3(Cl)CC3)ns2)c(Cl)cc1/N=C/N1CCCCC1 [Compound 34, 5-Chloro-4-{[3-(1-chlorocyclopropyl)-1,2,4-thiadiazol-5-yl]oxy}-2-methyl-N-[(1E)-piperidin-1-ylmethylidene]aniline] | ≥ 70 | ≥ 70 |  |  |  | 
1.72 |  | CCN(C)C=Nc1cc(Cl)c(Oc2nc(C3(Cl)CC3)ns2)cc1C [Compound 33, N′-(5-Chloro-4-{[3-(1-chlorocyclopropyl)-1,2,4-thiadiazol-5-yl]oxy}-2-methylphenyl)-N-ethyl-N-methylimidoformamide] | ≥ 70 | ≥ 70 |  |  | ≥ 70 | 
1.6 |  | Cc1cc(Oc2nc(C3(C)CC3)ns2)c(C)cc1/N=C/N1CCC1 [Compound 31, N-[(1E)-Azetidin-1-ylmethylidene]-2,5-dimethyl-4-{[3-(1-methylcyclopropyl)-1,2,4-thiadiazol-5-yl]oxy}aniline] |  |  | ≥ 70 | ≥ 70 |  | 
1.96 |  | Cc1cc(Oc2nc(C3CC3C)ns2)c(C)cc1/N=C/N1CCC1 (stereo not drawn) [Compound 32, N-[(1E)-Azetidin-1-ylmethylidene]-2,5-dimethyl-4-{[3-(2-methylcyclopropyl)-1,2,4-thiadiazol-5-yl]oxy}aniline] |  |  |  |  |  | 
2.35 |  | CCC1(c2nsc(Oc3cc(C)c(/N=C/N4CCCCC4)cc3C)n2)C(C)C1(Cl)Cl (stereo not drawn) [Compound 28, 4-{[3-(2,2-Dichloro-1-ethyl-3-methylcyclopropyl)-1,2,4-thiadiazol-5-yl]oxy}-2,5-dimethyl-N-[(1E)-piperidin-1-ylmethylidene]aniline] | ≥ 70 | ≥ 70 |  |  |  | ≥ 70
2.08 |  | Cc1cc(Oc2nc(C3(C)CC3(Cl)Cl)ns2)c(C)cc1/N=C/N1CCCCC1 (stereo not drawn) [Compound 26, 4-{[3-(2,2-Dichloro-1-methylcyclopropyl)-1,2,4-thiadiazol-5-yl]oxy}-2,5-dimethyl-N-[(1E)-piperidin-1-ylmethylidene]aniline] | ≥ 70 | ≥ 70 |  |  | ≥ 70 | ≥ 70

Reference: patent publication US20100285957A1, “THIAZOLYLOXYPHENYLAMIDINES OR THIADIAZOLYLOXYPHENYLAMIDINES AND THEIR USE AS FUNGICIDES” (Bayer CropScience AG, priority 2007, published 2010)
